Tests used:
[1] = Tack Test (wooden dowel probe on reservoir layer); format: physicochemical; set-up: key: A positive (+) result for tack indicates there was no transfer of the carrier polymer of the reservoir layer to the probe (adhesive failure); conditions: repellent 2% in dry carrier, coated on PET tape
Method: Samples of 0.75 inch (19 mm) diameter were coated in circular molds onto the PET tape to a dry thickness of approximately 0.020 inch (0.51 mm). The insect repellent was formulated at 2% within the dry carrier. Subsequent to coating, the samples were first allowed to air dry at room temperature for approximately 1 hour, then placed in a heated air convection oven at approximately […] for several hours. Upon removal, samples sat overnight before evaluation. As a measure of tack, the surface of the coated formulation was probed with the flat end of a wooden dowel The wooden dowel was applied under hand pressure to the surface of the reservoir layer for 1 second long in contact. A positive (+) result for tack indicates there was no transfer of the carrier polymer of the reservoir layer to the probe (adhesive failure).

[2] = Adhesion Test (reservoir layer to support film); format: physicochemical; set-up: key: A positive (+) result for adhesion indicates the carrier cohesively failed with transfer of polymer carrier material of the reservoir layer to the support film; conditions: Camie SBR carrier (CAMIE 390B); repellent 2% in dry carrier, coated on PET tape
Method: Samples of 0.75 inch (19 mm) diameter were coated in circular molds onto the PET tape to a dry thickness of approximately 0.020 inch (0.51 mm). The insect repellent was formulated at 2% within the dry carrier. Subsequent to coating, the samples were first allowed to air dry at room temperature for approximately 1 hour, then placed in a heated air convection oven at approximately […] for several hours. Upon removal, samples sat overnight before evaluation. A sharpened to a point like a flat wooden dowel (approximately 3 mm diameter) was used to separate the reservoir layer/support film coating interface. The sharpened end of the wooden dowel was applied under hand pressure at the interface in an attempt to separate the reservoir layer from the support film. A positive (+) result for adhesion indicates the carrier cohesively failed with transfer of polymer carrier material of the reservoir layer to the support film.

[3] = Bostik EVA carrier (comparative)

tack [1, 3] | tack ([1]; Camie SBR carrier (CAMIE 390B)) | adhesion [2] | SMILES
+ | + + | + + | CCN(CC)C(=O)c1cccc(C)c1 [Deet, N,N-diethyl-meta-toluamide]
+ | + + | + + | CC(C)=CCC/C(C)=C/CO [Geraniol]
